# From ChEMBL document CHEMBL1201862, “PubChem BioAssay data set” (2004)
#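 Results reflect a 48-hour exposure of cells in 96-well plates to compound at five concentrations. Abbreviation: GI50, concentration required for 50% inhibition of growth.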 Activity calls are given as the source filed them. Rule as the data show it: active = GI50 up to about 1.1 µM and inactive = higher.
# Experiments:
# Assay in all cases: NCI-60 cell line screen, 48 h
# A498 = tested on: A498
# SF-295 = tested on: SF-295
# SNB-75 = tested on: SNB-75
# RPMI-8226 = tested on: RPMI-8226
# MDA-MB-435 = tested on: MDA-MB-435
# EKVX = tested on: EKVX
# COLO 205 = tested on: COLO 205
# HOP-62 = tested on: HOP-62
# MCF7 = tested on: MCF7
# BT-549 = tested on: BT-549
# CCRF-CEM = tested on: CCRF-CEM
# MDA-N = tested on: MDA-N
# OVCAR-5 = tested on: OVCAR-5
# IGROV-1 = tested on: IGROV-1
# CAKI-1 = tested on: CAKI-1
# SR = tested on: SR
# DU-145 = tested on: DU-145
# SF-539 = tested on: SF-539
# LOX IMVI = tested on: LOX IMVI
# Hs-578T = tested on: Hs-578T
SMILES,GI50 (A498),GI50 (SF-295),GI50 (SNB-75),GI50 (RPMI-8226),GI50 (MDA-MB-435),GI50 (EKVX),GI50 (COLO 205),GI50 (HOP-62),GI50 (MCF7),GI50 (BT-549),GI50 (CCRF-CEM),GI50 (MDA-N),GI50 (OVCAR-5),GI50 (IGROV-1),GI50 (CAKI-1),GI50 (SR),GI50 (DU-145),GI50 (SF-539),GI50 (LOX IMVI),GI50 (Hs-578T)
Oc1cc(-c2cccc(OCc3ccccc3)c2)nc2cc3c(cc12)OCO3,0.256 µM (active),0.63 µM (active),1.05 µM (active),0.303 µM (active),0.0902 µM (active),0.378 µM (active),1.31 µM (inactive),0.44 µM (active),1.91 µM (inactive),0.469 µM (active),0.274 µM (active),0.106 µM (active),3.4 µM (inactive),1.09 µM (active),0.673 µM (active),0.397 µM (active),0.644 µM (active),0.252 µM (active),0.269 µM (active),0.303 µM (active)
O=C(/C=C/c1ccc(O)c(O)c1)c1cc(O)cc(O)c1,18.9 µM (inactive),19.7 µM (inactive),12.2 µM (inactive),71.6 µM (inactive),6.59 µM (inactive),20.6 µM (inactive),17.2 µM (inactive),21.4 µM (inactive),3.55 µM (inactive),8.69 µM (inactive),2 µM (inactive),6 µM (inactive),14.6 µM (inactive),13.8 µM (inactive),> 100 µM (inactive),5.24 µM (inactive),18.1 µM (inactive),6.52 µM (inactive),5.42 µM (inactive),11 µM (inactive)
C=CCc1cc(-c2cc(CC=C)c(O)c(CN(CCCl)CCCl)c2)cc(CN(CCCl)CCCl)c1O,20.7 µM (inactive),13 µM (inactive),16.3 µM (inactive),12.2 µM (inactive),15.4 µM (inactive),16 µM (inactive),17.7 µM (inactive),14 µM (inactive),5.77 µM (inactive),14.3 µM (inactive),3.03 µM (inactive),15.2 µM (inactive),18.3 µM (inactive),16.2 µM (inactive),8.22 µM (inactive),0.627 µM (active),15.7 µM (inactive),12.2 µM (inactive),10.3 µM (inactive),37 µM (inactive)
Nc1nc(=O)c(/N=N/c2ccccc2)c(C(=O)O)[nH]1,> 100 µM (inactive),56.6 µM (inactive),> 100 µM (inactive),63.8 µM (inactive),> 100 µM (inactive),23.3 µM (inactive),> 100 µM (inactive),55.3 µM (inactive),79.3 µM (inactive),> 100 µM (inactive),40.1 µM (inactive),> 100 µM (inactive),> 100 µM (inactive),85.7 µM (inactive),> 100 µM (inactive),35.3 µM (inactive),98.6 µM (inactive),> 100 µM (inactive),74.6 µM (inactive),> 100 µM (inactive)
CC(=O)O[C@@]12CO[C@@H]1C[C@@H](O)[C@@]1(C)C(=O)[C@H](O)C3=C(C)[C@@H](OC(=O)[C@H](O)[C@@H](NC(=O)c4ccccc4)c4ccccc4)C[C@@](O)([C@@H](OC(=O)c4ccccc4)C12)C3(C)C (some centres undefined),0.213 µM (active),0.268 µM (active),< 0.01 µM (active),< 0.01 µM (active),< 0.01 µM (active),4.81 µM (inactive),< 0.01 µM (active),0.0893 µM (active),< 0.01 µM (active),0.0243 µM (active),0.0103 µM (active),< 0.01 µM (active),0.0832 µM (active),0.0218 µM (active),1.82 µM (inactive),0.0438 µM (active),0.0301 µM (active),< 0.0114 µM (active),< 0.0303 µM (active),< 0.01 µM (active)
CC(C)C12CCC3(CCC4C(C)(C(=O)O)CCCC4(C)C3C1)C(CN)C2 (centres undefined),28.8 µM (inactive),51.2 µM (inactive),88.5 µM (inactive),19.3 µM (inactive),37.7 µM (inactive),32.2 µM (inactive),17.7 µM (inactive),74.6 µM (inactive),29.5 µM (inactive),38.5 µM (inactive),0.388 µM (active),28.4 µM (inactive),42.3 µM (inactive),53.2 µM (inactive),35.4 µM (inactive),25.9 µM (inactive),38.6 µM (inactive),28.2 µM (inactive),18.7 µM (inactive),62.8 µM (inactive)
O=C(NC12CC3CC(CC(C3)C1)C2)n1cnc2c(Cl)ncnc21,> 100 µM (inactive),59.8 µM (inactive),27.4 µM (inactive),40.7 µM (inactive),19.1 µM (inactive),25.8 µM (inactive),17 µM (inactive),37.5 µM (inactive),> 100 µM (inactive),31.3 µM (inactive),7.71 µM (inactive),21.6 µM (inactive),> 100 µM (inactive),18.5 µM (inactive),> 100 µM (inactive),10.8 µM (inactive),24.3 µM (inactive),42.6 µM (inactive),18.7 µM (inactive),32.3 µM (inactive)
CN(C)CCCNc1c2c(nc3ccc(Cl)cc13)CCCC2,18 µM (inactive),14.5 µM (inactive),15.7 µM (inactive),7.59 µM (inactive),14.9 µM (inactive),14.9 µM (inactive),8.51 µM (inactive),12.9 µM (inactive),12.1 µM (inactive),18.1 µM (inactive),3.93 µM (inactive),13.5 µM (inactive),20 µM (inactive),12.7 µM (inactive),23.3 µM (inactive),2.55 µM (inactive),13.9 µM (inactive),13.5 µM (inactive),11.9 µM (inactive),19.1 µM (inactive)
C[C@]12CCC(=O)[C@@H](CCC3=CC(=O)C=CC3=O)[C@@H]1CCC2=O,17.5 µM (inactive),17.8 µM (inactive),5.48 µM (inactive),1.6 µM (inactive),22 µM (inactive),18.4 µM (inactive),13 µM (inactive),39.2 µM (inactive),13.9 µM (inactive),11 µM (inactive),1.87 µM (inactive),23.8 µM (inactive),41.5 µM (inactive),,12.7 µM (inactive),0.0102 µM (active),17.9 µM (inactive),11.4 µM (inactive),11 µM (inactive),3.97 µM (inactive)
O=CC(O)C(O)C(O)C1CNC(=S)O1 (centres undefined),> 100 µM (inactive),> 100 µM (inactive),> 100 µM (inactive),> 100 µM (inactive),> 100 µM (inactive),> 100 µM (inactive),> 100 µM (inactive),> 100 µM (inactive),> 100 µM (inactive),> 100 µM (inactive),> 100 µM (inactive),> 100 µM (inactive),> 100 µM (inactive),> 100 µM (inactive),> 100 µM (inactive),> 100 µM (inactive),> 100 µM (inactive),> 100 µM (inactive),> 100 µM (inactive),> 100 µM (inactive)
COC(=O)C(Cc1ccccc1)NC(=O)c1ccc(CNC(=S)NCc2cccc(CNC(=S)NCc3ccccc3)c2)cc1 (centres undefined),> 62.5 µM (inactive),> 33.4 µM (inactive),13.4 µM (inactive),> 29.1 µM (inactive),> 34.2 µM (inactive),> 32.2 µM (inactive),> 32.1 µM (inactive),28.9 µM (inactive),> 32.8 µM (inactive),> 33.9 µM (inactive),> 34 µM (inactive),> 32.5 µM (inactive),> 34.3 µM (inactive),> 31.7 µM (inactive),> 36.4 µM (inactive),> 34.6 µM (inactive),> 35.9 µM (inactive),> 62.5 µM (inactive),> 35.6 µM (inactive),> 29.9 µM (inactive)
CC(OP(=O)(O)O)C(N)C(=O)O (centres undefined),> 100 µM (inactive),> 100 µM (inactive),> 100 µM (inactive),> 100 µM (inactive),> 100 µM (inactive),> 100 µM (inactive),> 100 µM (inactive),> 100 µM (inactive),> 100 µM (inactive),> 100 µM (inactive),> 100 µM (inactive),> 100 µM (inactive),> 100 µM (inactive),> 100 µM (inactive),> 100 µM (inactive),> 100 µM (inactive),> 100 µM (inactive),> 100 µM (inactive),> 100 µM (inactive),> 100 µM (inactive)
C=C1C(=O)O[C@@H]2C[C@@H](C)[C@@H]3[C@@H](OC4OC(COC(C)=O)C(O)C(O)C4O)CC(=O)[C@@]3(C)C[C@H]12 (some centres undefined),15.5 µM (inactive),17.3 µM (inactive),7.31 µM (inactive),1.39 µM (inactive),2.26 µM (inactive),1.87 µM (inactive),0.703 µM (active),17.3 µM (inactive),0.728 µM (active),1.34 µM (inactive),0.238 µM (active),1.66 µM (inactive),3.54 µM (inactive),2.17 µM (inactive),0.508 µM (active),1.6 µM (inactive),8.38 µM (inactive),2.42 µM (inactive),0.63 µM (active),25.2 µM (inactive)
S=C1c2cc(Cl)ccc2N=C(NC2CCCC2)C2CSCN12 (centres undefined),> 100 µM (inactive),> 75.9 µM (inactive),99.3 µM (inactive),> 63.8 µM (inactive),> 91.8 µM (inactive),> 91 µM (inactive),> 100 µM (inactive),> 100 µM (inactive),> 71.4 µM (inactive),> 100 µM (inactive),> 69.5 µM (inactive),97.3 µM (inactive),> 100 µM (inactive),> 100 µM (inactive),> 100 µM (inactive),> 60.1 µM (inactive),> 100 µM (inactive),89.9 µM (inactive),> 100 µM (inactive),> 96.6 µM (inactive)
